Inconclusive results and toxic doses are left out. No stated cut-off is given here; in the data, active means T/C of 150% or more; inactive means T/C below 125%.
Tested on: L1210 leukemia ip in BDF1 mice, survival T/C
Experiment: NCI In Vivo Anticancer Drug Screen. Data for tumor model L1210 Leukemia (intraperitoneal) in B6D2F1 (BDF1) mice
Settings: higher = longer survival
Outline: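 Tumor cells were implanted, animals were treated, and survival was followed. The result divides the treated measurement by the vehicle-control measurement.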

[1] = endpoint: mean survival time, dose: 50.0 mg/kg/injection, schedule: Q01DX001 (ip), vehicle: Klucel (hydroxypropylcellulose) (HPC)
[2] = endpoint: mean survival time, dose: 50.0 mg/kg/injection, schedule: Q01DX009 (ip), vehicle: Klucel (hydroxypropylcellulose) (HPC)
[3] = endpoint: mean survival time, dose: 100.0 mg/kg/injection, schedule: Q01DX001 (ip), vehicle: Klucel (hydroxypropylcellulose) (HPC)
[4] = endpoint: mean survival time, dose: 100.0 mg/kg/injection, schedule: Q01DX009 (ip), vehicle: Klucel (hydroxypropylcellulose) (HPC)
[5] = endpoint: mean survival time, dose: 100.0 mg/kg/injection, schedule: Q04DX003 (ip), vehicle: Klucel (hydroxypropylcellulose) (HPC)
[6] = endpoint: mean survival time, dose: 200.0 mg/kg/injection, schedule: Q01DX001 (ip), vehicle: Klucel (hydroxypropylcellulose) (HPC)
[7] = endpoint: mean survival time, dose: 200.0 mg/kg/injection, schedule: Q01DX009 (ip), vehicle: Klucel (hydroxypropylcellulose) (HPC)
[8] = endpoint: mean survival time, dose: 200.0 mg/kg/injection, schedule: Q04DX003 (ip), vehicle: Klucel (hydroxypropylcellulose) (HPC)
[9] = endpoint: mean survival time, dose: 400.0 mg/kg/injection, schedule: Q01DX009 (ip), vehicle: Klucel (hydroxypropylcellulose) (HPC)
[10] = endpoint: mean survival time, dose: 400.0 mg/kg/injection, schedule: Q04DX003 (ip), vehicle: Klucel (hydroxypropylcellulose) (HPC)
[11] = endpoint: mean survival time, dose: 100.0 mg/kg/injection, schedule: Q01DX009 (ip), vehicle: saline with Tween-80
[12] = endpoint: mean survival time, dose: 200.0 mg/kg/injection, schedule: Q01DX009 (ip), vehicle: saline with Tween-80
[13] = endpoint: mean survival time, dose: 400.0 mg/kg/injection, schedule: Q01DX009 (ip), vehicle: saline with Tween-80
[14] = endpoint: mean survival time, dose: 100.0 mg/kg/injection, schedule: Q01DX001 (ip), vehicle: saline

Measured: T/C

Cc1[nH]c(=S)[nH]c(=O)c1CN(CCO)CCO
inactive: [1] 123 % of control | [2] 96 % of control | endpoint: mean survival time, dose: 50.0 mg/kg/injection, schedule: Q04DX003 (ip), vehicle: Klucel (hydroxypropylcellulose) (HPC) 108 % of control | [3] 101 % of control | [4] 101 % of control | [5] 102 % of control | [6] 101 % of control | [7] 123 % of control | [8] 91 % of control

Cc1ccc(C(Br)C2=CC(C)(C)c3ccccc3C2=O)cc1 (stereo unspecified)
inactive: [4] 106 % of control | [5] 106 % of control | [7] 101 % of control | [8] 104 % of control | [9] 98 % of control | [10] 104 % of control

CN1CCCCCC1
inactive: endpoint: mean survival time, dose: 50.0 mg/kg/injection, schedule: Q01DX009 (ip), vehicle: acetone 86 % of control | endpoint: mean survival time, dose: 100.0 mg/kg/injection, schedule: Q01DX009 (ip), vehicle: acetone 110 % of control

CC1=Nc2ccccc2SC(C)(C)C1
inactive: [1] 98 % of control | [3] 91 % of control | [6] 109 % of control | endpoint: mean survival time, dose: 400.0 mg/kg/injection, schedule: Q01DX001 (ip), vehicle: Klucel (hydroxypropylcellulose) (HPC) 98 % of control

COc1cc2c3c(c1)C(=O)CCN3CCC2
inactive: [5] 93 % of control | [8] 93 % of control

O=C(C[n+]1cccc2ccccc21)c1ccc([N+](=O)[O-])cc1
inactive: endpoint: mean survival time, dose: 100.0 mg/kg/injection, schedule: Q04DX002 (ip), vehicle: saline with Tween-80 109 % of control

CC(=O)OC1(C)CC(C)C(=O)C(C(O)CC2CC(=O)NC(=O)C2)C1 (stereo unspecified)
inactive: endpoint: mean survival time, dose: 0.05 mg/kg/injection, schedule: Q01DX009 (ip), vehicle: saline with Tween-80 108 % of control | endpoint: mean survival time, dose: 0.06 mg/kg/injection, schedule: Q01DX009 (ip), vehicle: water 107 % of control | endpoint: mean survival time, dose: 0.1 mg/kg/injection, schedule: Q01DX009 (ip), vehicle: saline with Tween-80 114 % of control | endpoint: mean survival time, dose: 0.12 mg/kg/injection, schedule: Q01DX009 (ip), vehicle: saline 117 % of control | endpoint: mean survival time, dose: 0.15 mg/kg/injection, schedule: Q01DX009 (ip), vehicle: saline with Tween-80 91 % of control | endpoint: mean survival time, dose: 0.15 mg/kg/injection, schedule: Q01DX009 (ip), vehicle: saline 120 % of control | endpoint: mean survival time, dose: 0.2 mg/kg/injection, schedule: Q01DX009 (ip), vehicle: saline with Tween-80 120 % of control | endpoint: mean survival time, dose: 0.25 mg/kg/injection, schedule: Q01DX009 (ip), vehicle: saline 109 % of control | endpoint: mean survival time, dose: 0.3 mg/kg/injection, schedule: Q01DX009 (ip), vehicle: saline 118 % of control | endpoint: mean survival time, dose: 0.5 mg/kg/injection, schedule: Q01DX009 (ip), vehicle: saline 96 % of control | endpoint: mean survival time, dose: 0.5 mg/kg/injection, schedule: Q01DX009 (ip), vehicle: water 108 % of control | endpoint: mean survival time, dose: 0.5 mg/kg/injection, schedule: Q04DX003 (ip), vehicle: water 108 % of control | endpoint: mean survival time, dose: 1.0 mg/kg/injection, schedule: Q01DX009 (ip), vehicle: water 100 % of control | endpoint: mean survival time, dose: 1.0 mg/kg/injection, schedule: Q04DX003 (ip), vehicle: saline 115 % of control | endpoint: mean survival time, dose: 1.0 mg/kg/injection, schedule: Q04DX003 (ip), vehicle: water 109 % of control | endpoint: mean survival time, dose: 1.2 mg/kg/injection, schedule: Q01DX009 (ip), vehicle: saline 115 % of control | endpoint: mean survival time, dose: 2.0 mg/kg/injection, schedule: Q01DX001 (ip), vehicle: saline 102 % of control | endpoint: mean survival time, dose: 2.0 mg/kg/injection, schedule: Q04DX003 (ip), vehicle: saline 116 % of control | endpoint: mean survival time, dose: 2.0 mg/kg/injection, schedule: Q04DX003 (ip), vehicle: water 108 % of control | endpoint: mean survival time, dose: 2.0 mg/kg/injection, schedule: Q08DX002 (ip), vehicle: saline 102 % of control | endpoint: mean survival time, dose: 4.0 mg/kg/injection, schedule: Q01DX001 (ip), vehicle: saline 100 % of control | endpoint: mean survival time, dose: 4.0 mg/kg/injection, schedule: Q04DX003 (ip), vehicle: saline 114 % of control | endpoint: mean survival time, dose: 4.0 mg/kg/injection, schedule: Q04DX003 (ip), vehicle: water 100 % of control | endpoint: mean survival time, dose: 4.0 mg/kg/injection, schedule: Q08DX002 (ip), vehicle: saline 98 % of control | endpoint: mean survival time, dose: 8.0 mg/kg/injection, schedule: Q01DX001 (ip), vehicle: saline 109 % of control | endpoint: mean survival time, dose: 8.0 mg/kg/injection, schedule: Q08DX002 (ip), vehicle: saline 100 % of control | endpoint: mean survival time, dose: 62.5 micrograms/kg/injection, schedule: Q01DX009 (ip), vehicle: saline 115 % of control | endpoint: mean survival time, dose: 125.0 micrograms/kg/injection, schedule: Q01DX009 (ip), vehicle: saline 123 % of control | endpoint: mean survival time, dose: 125.0 micrograms/kg/injection, schedule: Q03HX008 (ip), vehicle: saline 104 % of control | endpoint: mean survival time, dose: 125.0 micrograms/kg/injection, schedule: Q03HX016 (ip), vehicle: saline 123 % of control | endpoint: mean survival time, dose: 250.0 micrograms/kg/injection, schedule: Q01DX009 (ip), vehicle: saline 101 % of control | endpoint: mean survival time, dose: 250.0 micrograms/kg/injection, schedule: Q03HX008 (ip), vehicle: saline 112 % of control | endpoint: median survival time, dose: 1.0 mg/kg/injection, schedule: Q04DX003 (ip), vehicle: saline 103 % of control | endpoint: median survival time, dose: 2.0 mg/kg/injection, schedule: Q04DX003 (ip), vehicle: saline 105 % of control | endpoint: median survival time, dose: 4.0 mg/kg/injection, schedule: Q04DX003 (ip), vehicle: saline 106 % of control | endpoint: median survival time, dose: 8.0 mg/kg/injection, schedule: Q04DX003 (ip), vehicle: saline 114 % of control

O=C(NCCCl)NC1CCc2ccccc2C1 (stereo unspecified)
inactive: [5] 93 % of control | [8] 88 % of control | [10] 89 % of control

CC(=O)N(C)c1ccc(NC(=O)Cc2ccccc2)cc1
inactive: [11] 96 % of control | [12] 102 % of control | [13] 95 % of control

COc1cc(OC)c(N=Cc2ccc3c(c2)OCO3)cc1Cl
inactive: [4] 91 % of control | [7] 98 % of control | [9] 96 % of control

CCCN1CCCN(CCC)C1=O
inactive: endpoint: mean survival time, dose: 50.0 mg/kg/injection, schedule: Q04DX002 (ip), vehicle: Klucel (hydroxypropylcellulose) (HPC) 102 % of control | endpoint: mean survival time, dose: 100.0 mg/kg/injection, schedule: Q04DX002 (ip), vehicle: Klucel (hydroxypropylcellulose) (HPC) 102 % of control | endpoint: mean survival time, dose: 200.0 mg/kg/injection, schedule: Q04DX002 (ip), vehicle: Klucel (hydroxypropylcellulose) (HPC) 93 % of control

CCOP(=O)(OCC)Oc1ccc(Sc2ccc(OP(=O)(OCC)OCC)cc2)cc1
inactive: [14] 108 % of control

CCC1=CC(=O)C(CC)=CC1=O
inactive: endpoint: mean survival time, dose: 100.0 mg/kg/injection, schedule: Q04DX003 (ip), vehicle: saline with Tween-80 89 % of control | endpoint: mean survival time, dose: 200.0 mg/kg/injection, schedule: Q04DX003 (ip), vehicle: saline with Tween-80 94 % of control | endpoint: mean survival time, dose: 700.0 mg/kg/injection, schedule: Q04DX003 (ip), vehicle: saline with Tween-80 100 % of control

CC1C(C)(C)P(N)(=O)C1(C)C (stereo unspecified)
inactive: endpoint: mean survival time, dose: 100.0 mg/kg/injection, schedule: Q04DX003 (ip), vehicle: saline 100 % of control | endpoint: mean survival time, dose: 200.0 mg/kg/injection, schedule: Q04DX003 (ip), vehicle: saline 103 % of control | endpoint: mean survival time, dose: 400.0 mg/kg/injection, schedule: Q04DX003 (ip), vehicle: saline 97 % of control

COC1OC(C)C(OS(C)(=O)=O)C2OC(C)(C)OC12 (stereo unspecified)
inactive: [2] 103 % of control | [4] 97 % of control | [5] 124 % of control | [7] 100 % of control | [8] 107 % of control | [9] 112 % of control | [10] 101 % of control

CC(=O)COC(=O)c1ccc(N(C)CC(C)=O)cc1
inactive: [5] 95 % of control | [8] 86 % of control | [10] 93 % of control

CC(=O)OCC(C)CCC(=O)C(C)C1C(=O)CC2C3CC=C4CC(OC(C)=O)CCC4(C)C3CCC21C (stereo unspecified)
inactive: [11] 96 % of control | [12] 97 % of control | [13] 96 % of control

Brc1ccc(/C=N/Nc2nnc(N/N=C/c3ccc(Br)cc3)c3ccccc23)cc1
inactive: endpoint: mean survival time, dose: 50.0 mg/kg/injection, schedule: Q01DX001 (ip), vehicle: saline 93 % of control | [14] 96 % of control | endpoint: mean survival time, dose: 200.0 mg/kg/injection, schedule: Q01DX001 (ip), vehicle: saline 102 % of control | endpoint: mean survival time, dose: 400.0 mg/kg/injection, schedule: Q01DX001 (ip), vehicle: saline 102 % of control

Reference: PubChem BioAssay AID248 (DTP/NCI, 2004)
